The text below walks through data of US11197908B2, “Peptoids and methods for attenuating inflammatory response” (THE BOARD OF TRUSTEES OF THE UNIVERSITY OF ARKANSAS, priority 2018, dated 2021).

The structures appear in SMILES notation. Where a SMILES comes first, the peptide text is derived from it. [ ]: non-standard residue; d: D form. N(1S-Me-propyl)Gly = CC[C@H](C)NCC(=O)O; Nspe = C[C@H](NCC(=O)O)c1ccccc1; Nlys = NCCCCNCC(=O)O

In one assay the target is T1, E-cadherin (Homo sapiens, UniProt P12830).
T1 sequence (P12830 155-882): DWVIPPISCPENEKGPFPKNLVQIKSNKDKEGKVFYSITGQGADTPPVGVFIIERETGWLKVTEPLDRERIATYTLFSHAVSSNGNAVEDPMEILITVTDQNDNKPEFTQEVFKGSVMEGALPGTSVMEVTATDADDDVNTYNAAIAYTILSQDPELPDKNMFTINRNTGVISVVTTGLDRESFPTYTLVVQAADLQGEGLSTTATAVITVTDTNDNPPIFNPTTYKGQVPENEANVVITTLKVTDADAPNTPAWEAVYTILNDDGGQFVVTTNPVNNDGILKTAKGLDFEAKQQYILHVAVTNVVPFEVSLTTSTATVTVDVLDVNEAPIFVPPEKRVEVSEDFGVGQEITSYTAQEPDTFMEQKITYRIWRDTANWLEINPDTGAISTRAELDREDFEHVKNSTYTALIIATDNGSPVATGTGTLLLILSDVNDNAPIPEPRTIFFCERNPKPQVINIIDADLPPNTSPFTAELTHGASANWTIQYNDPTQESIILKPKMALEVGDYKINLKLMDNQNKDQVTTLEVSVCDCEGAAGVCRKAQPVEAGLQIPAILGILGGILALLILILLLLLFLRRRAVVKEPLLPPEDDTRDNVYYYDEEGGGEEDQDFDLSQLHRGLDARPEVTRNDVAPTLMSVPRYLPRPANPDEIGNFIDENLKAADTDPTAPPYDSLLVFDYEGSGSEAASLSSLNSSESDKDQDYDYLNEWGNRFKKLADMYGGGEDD
In words: E-cadherin binding to JPT1a-coated 96-well plates. Particulars: plates coated with 500 nM JPT1a; E-cadherin 1 to 500 nM. Here is the method:
As shown in FIGS. 7A-7D, 96-well plates coated with 500 nM JPT1a were treated with concentrations of RAGE (FIG. 7A) or E-cadherin (FIG. 7B) ranging from 1 to 500 nM. Values are reported as the average concentration of bound protein determined from all experiments. Error bars indicate SEM, n=2-5. […] In FIG. 7D, 96-well plates coated with 500 nM JPT1 were treated with concentrations of RAGE ranging from 1 to 350 nM.

The subject of a further assay is IL-6. Description: IL-6 in supernatant of THP-1 macrophages co-incubated with peptoid and LPS (ELISA). The class given is cell-based, human. The conditions noted are these: 3 days, vs LPS alone. Here is the method: THP-1 monocytes were differentiated into macrophages through exposure to phorbol 12-myristate 13-acetate (PMA) for three days prior to experimentation 10. […] Upon differentiation, these cells were then incubated (3 days) with media containing JPT1a (50, 10, or 2 μM) alone or JPT1a (50, 10, or 2 μM) in the presence of low-dose (2 ng/mL) lipopolysaccharide (LPS) as a chronic pro-inflammatory stimulus 11. Treatment with 2 ng/mL LPS alone served as a positive control, while treatment with an equivalent volume of buffer diluted into media served as the vehicle. Cellular supernatant was harvested on day 3 12; these samples were immediately centrifuged at 1200 rpm for 10 min at 25° C. to remove any cells or debris. The top 80% of this volume was subsequently removed and stored at −80° C. for later assessment of cytokines via ELISA. Cells were fixed and stained for RAGE, phalloidin (cytoplasmic marker), and DAPI (nuclear marker) 13. […] All multi-channel images were converted to TIFF file format via ImageJ64 software for quantitative image analysis using a custom subroutine written in Matlab™ software to obtain the average RAGE expression per volume of cells, and the data generated was assessed for statistical significance using GraphPad Prism 7.0 software 15.
As shown in FIGS. 2B-2D, THP-1 macrophages were treated with JPT1a alone (white) or in the presence of a chronic low-dose (2 ng/mL) of LPS (grey), for 3 days prior to supernatant harvest and storage. Examination of the supernatant via ELISA determined the concentrations of (FIG. 2B) IL-1β, (FIG. 2C) IL-6, and (FIG. 2D) IL-8. […]
As shown in FIGS. 5B-5D, THP-1 macrophages were treated with JPT1 alone (white) or in the presence of a chronic low-dose (2 ng/mL) of LPS (grey), for 3 days prior to supernatant harvest and storage. Examination of the supernatant via ELISA determined the concentrations of (FIG. 5B) IL-1β, (FIG. 5C) IL-6, and (FIG. 5D) IL-8. […]

A further assay concerns RAGE. In words: Reversal of LPS-induced RAGE expression in previously stimulated THP-1 macrophages (confocal imaging). The conditions noted are these: additional 24 h, vs LPS alone. The class given is cell-based, human. On the procedure: THP-1 monocytes were differentiated as described above 20. Upon differentiation, these cells were then incubated (48 h) with media containing low-dose (2 ng/mL) LPS as a chronic pro-inflammatory stimulus 21. Following incubation, JPT1a or JPT1 was added for final concentrations of 25, 5, and 1 μM 22, and cells were incubated an additional 24 h. Treatment with 2 ng/mL LPS alone served as a positive control, while treatment with an equivalent volume of buffer diluted into media served as the vehicle. Media was collected for later assessment of cytokines via ELISA as described above 23. Cells were fixed and stained for RAGE, phalloidin (cytoplasmic marker), and DAPI (nuclear marker) 24. […] 25 All multi-channel images were converted to TIFF file format via ImageJ64 software for quantitative image analysis using a custom subroutine written in Matlab™ software to obtain the average RAGE expression per volume of cells, and the data generated was assessed for statistical significance using GraphPad Prism 7.0 software 26.
After 48 hours, half of the supernatant was removed, treated with JPT1a (dashed-grey) at final concentrations of 25, 5, 1, and 0 μM (positive control), and then added back to respective samples. […] Images were analyzed via custom MATLAB™ subroutine to determine the average quantity of RAGE present within a given volume of cells. […]

As to `CC[C@H](C)N(CC(=O)N(CC(=O)N(CC(=O)N(CC(=O)N(CC(=O)N(CC(=O)N(CC(N)=O)[C@@H](C)c1ccccc1)[C@@H](C)c1ccccc1)[C@@H](C)CC)[C@@H](C)c1ccccc1)[C@@H](C)c1ccccc1)[C@@H](C)CC)C(=O)CNCCCCN` [JPT1a] (H-[Nlys][N(1S-Me-propyl)Gly][N(1S-Me-propyl)Gly][Nspe][Nspe][N(1S-Me-propyl)Gly][Nspe][Nspe]-NH2), the “binding to E-cadherin” value on E-cadherin is given as “absence of binding”. In addition, in the assay on IL-6 (peptoid 10 μM with 2 ng/mL LPS), the “levels of LPS-induced IL-6” value is recorded as “significantly reduces”. In addition, in the assay with IL-6 (peptoid 50 μM with 2 ng/mL LPS), the “LPS-induced production of IL-6” value is “significantly attenuates”. Moreover, the “reversal in LPS-induced RAGE expression” value in the assay with RAGE (5 μM added after 48 h of 2 ng/mL LPS) and with RAGE (25 μM added after 48 h of 2 ng/mL LPS) was “significant reversal” in each case.
